Data set [1] deals with HeLa. The data set is described as follows: Selectivity ratio of CC50 for BRCA1-proficient human HeLa to CC50 for BRCA1-deficient human HeLa cells. It is filed as functional.
Data set [2] relates to HeLa. The data set is described as follows: Antiproliferative activity against BRCA1-proficient human HeLa cells after 7 days by celltiter-blue assay. It counts as functional. The note with it: 168 h.
For data set [3], the system named is HeLa. The data set is described as follows: Antiproliferative activity against BRCA1-deficient human HeLa cells after 7 days by celltiter-blue assay. It is filed as functional. The settings on record: 168 h. In general terms: Resazurin is reduced to fluorescent resorufin, in cell work by metabolically active cells.
The nature of data set [4]: Clearance in rat. It counts as ADME, organism-based. The settings on record: in vivo.
Data set [5] has as its target Poly [ADP-ribose] polymerase 1 (Homo sapiens, UniProt P09874). Briefly: Inhibition of PARP1 by topcount microplate scintillation counter.
The target in the next data set is CYP3A4 (Homo sapiens, UniProt P08684). The data set is described as follows: Inhibition of CYP3A4 at 10 uM. It counts as ADME.
Data set [6] can be described thus: Intrinsic clearance in rat liver microsomes. It is filed as ADME, Microsome. A general note: Microsomes from liver hold many membrane-bound enzymes, among them those of drug oxidation.
The nature of data set [7]: Lipophilicity, log D of the compound. It is filed as physicochemical. The settings on record: octanol/water.

Several values for one entry are separate records, joined by “and”; a condition that tells them apart may be missing. Identical values can stand only once.

Poly [ADP-ribose] polymerase 1, sequence (P09874 whole entry): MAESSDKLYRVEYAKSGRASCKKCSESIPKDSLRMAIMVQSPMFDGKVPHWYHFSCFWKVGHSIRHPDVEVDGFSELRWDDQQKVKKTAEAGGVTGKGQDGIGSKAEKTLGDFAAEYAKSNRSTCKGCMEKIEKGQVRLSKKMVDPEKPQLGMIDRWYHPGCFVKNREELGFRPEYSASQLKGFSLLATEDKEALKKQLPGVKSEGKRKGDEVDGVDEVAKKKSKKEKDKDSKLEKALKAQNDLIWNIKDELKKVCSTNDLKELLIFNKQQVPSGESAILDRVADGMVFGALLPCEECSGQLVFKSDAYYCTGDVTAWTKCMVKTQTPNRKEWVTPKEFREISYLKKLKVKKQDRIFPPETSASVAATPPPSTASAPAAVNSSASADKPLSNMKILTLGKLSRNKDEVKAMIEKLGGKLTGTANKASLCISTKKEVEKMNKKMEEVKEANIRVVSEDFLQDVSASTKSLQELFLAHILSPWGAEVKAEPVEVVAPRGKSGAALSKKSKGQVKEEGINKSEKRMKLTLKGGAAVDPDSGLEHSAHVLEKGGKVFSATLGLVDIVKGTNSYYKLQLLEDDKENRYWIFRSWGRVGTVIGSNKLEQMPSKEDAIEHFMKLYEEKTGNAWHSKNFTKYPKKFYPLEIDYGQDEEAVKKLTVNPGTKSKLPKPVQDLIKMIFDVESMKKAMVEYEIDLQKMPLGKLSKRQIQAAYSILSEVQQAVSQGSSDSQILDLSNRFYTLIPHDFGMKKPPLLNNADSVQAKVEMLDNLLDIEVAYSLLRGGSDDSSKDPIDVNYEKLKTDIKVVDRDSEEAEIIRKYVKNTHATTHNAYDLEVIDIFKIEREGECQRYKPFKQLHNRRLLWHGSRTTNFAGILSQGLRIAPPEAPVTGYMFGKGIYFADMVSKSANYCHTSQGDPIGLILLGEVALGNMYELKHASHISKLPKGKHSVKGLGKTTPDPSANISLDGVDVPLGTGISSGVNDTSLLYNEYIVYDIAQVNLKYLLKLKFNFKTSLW
CYP3A4, sequence (P08684 whole entry): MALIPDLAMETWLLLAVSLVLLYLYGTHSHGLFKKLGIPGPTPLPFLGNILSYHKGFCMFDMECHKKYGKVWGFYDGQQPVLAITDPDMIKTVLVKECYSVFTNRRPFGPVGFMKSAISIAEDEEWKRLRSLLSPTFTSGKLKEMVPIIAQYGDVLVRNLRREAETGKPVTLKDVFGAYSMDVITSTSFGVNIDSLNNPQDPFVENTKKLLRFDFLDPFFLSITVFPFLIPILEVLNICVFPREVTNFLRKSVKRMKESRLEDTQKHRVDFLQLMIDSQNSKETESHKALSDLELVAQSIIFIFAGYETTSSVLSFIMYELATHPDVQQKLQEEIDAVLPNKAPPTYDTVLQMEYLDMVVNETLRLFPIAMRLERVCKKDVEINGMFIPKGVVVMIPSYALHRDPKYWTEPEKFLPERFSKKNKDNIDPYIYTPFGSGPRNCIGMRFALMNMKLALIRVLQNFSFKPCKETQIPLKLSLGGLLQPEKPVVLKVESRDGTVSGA

As a reminder, the CC50 is the concentration that lowers cell viability or growth by half. A lower CC50 goes with harm at low concentration. What is called clearance is a measure of how efficiently the substance is removed, as volume per time. A word on the IC50: it is the midpoint of a concentration-inhibition curve. High values mean lower potency, low ones higher potency. Consider `CNC(C)(C)C(=O)N1CCN(C(=O)c2cc(Cc3c[nH]c(=O)c4cc(Cl)c(Cl)n34)ccc2F)CC1`, for which the Selectivity ratio in the data set on HeLa [1] was 100 and 50. Also, the figures for the CC50 in the data set on HeLa [2] and with HeLa [3] were > 5000 nM and 53 nM, respectively. In addition, in data set [4], the clearance is > 200 mL/min/kg. In data set [5], the IC50 is 2.1 nM.
By inhibition is commonly meant the relative decrease from the control value, in per cent. Read a low inhibition as a response near the control. For orientation: microsomal CLint means a measure of how fast metabolising enzymes remove a compound, apart from limits set by blood flow. Take `O=C(c1cc(Cc2c[nH]c(=O)c3cc(Cl)c(Cl)n23)ccc1F)N1CCC(N2CCCC2)CC1`: the results for the CC50 in the data set with HeLa [2] and with HeLa [3] were > 5000 nM and 120 nM, respectively. In data set [4], this molecule returned a clearance of 94 mL/min/kg. The molecule also returned an inhibition at 10 µM on CYP3A4 of 30%. Besides, the midpoint of inhibition in data set [5], the IC50, lay at 5.4 nM. The molecule also returned a microsomal CLint in data set [6] of 135 µL/min/mg.
In general, logD refers to the decadic logarithm of the distribution of all forms, ionised or not, between an organic phase and buffer at a given pH. A low value points to lower lipophilicity. In the case of `O=C(c1cc(Cc2c[nH]c(=O)c3cccn23)ccc1F)N1CCCNCC1`, the logD in data set [7] was -0.89. For the same molecule, the CC50 in the data set on HeLa [2] and with HeLa [3] was > 20000 nM throughout. The molecule also showed an IC50 in data set [5] of 1.8 nM.

(Values after ChEMBL document CHEMBL1158513, “Identification and SAR of novel pyrrolo[1,2-a]pyrazin-1(2H)-one derivatives as inhibitors of poly(ADP-ribose) polymerase-1 (PARP-1)” (Bioorg Med Chem Lett, 2010).)
